{"source": "patent US11213530B2", "about": "“Gallium in the treatment of coronavirus disease” (priority 2020, dated 2022)", "tested_on": "SARS-CoV-2 (WIV04)", "assay_type": "cell-based", "settings": "Vero-E6 cells", "data": [{"smiles": "Cc1occc(=O)c1[O-].Cc1occc(=O)c1[O-].Cc1occc(=O)c1[O-].[Ga+3]", "note": "[gallium maltolate]", "values": [{"measurement": "in vitro antiviral activity", "setting": "MOI 0.005, 0.1 μM to 100 μM, 24 hours, FIG. 1", "result": "pronounced, dose-dependent in vitro antiviral activity"}, {"measurement": "EC50", "setting": "MOI 0.005, viral RNA in culture media by qRT-PCR at 24 hours after treatment, read-out: concentration that inhibited viral replication by 50% (EC50)", "result": "~14", "unit": "µM"}]}]}
